Assay results from BindingDB's records for doi:10.1021/acs.biochem.5b00822 (The University of Kansas Medical Center, 2015).
Several values for one entry are separate records, joined by “and”; a condition that tells them apart may be missing. Equal entries are not always repeated.

Assays:
Conditions in all cases: 25 °C
[1] = target: T1, Phosphoenolpyruvate carboxykinase, cytosolic [GTP] (Rattus norvegicus, UniProt P07379); assay: PEPCK Assay (PEP to OAA-allosteric)
T1 sequence (P07379 whole entry): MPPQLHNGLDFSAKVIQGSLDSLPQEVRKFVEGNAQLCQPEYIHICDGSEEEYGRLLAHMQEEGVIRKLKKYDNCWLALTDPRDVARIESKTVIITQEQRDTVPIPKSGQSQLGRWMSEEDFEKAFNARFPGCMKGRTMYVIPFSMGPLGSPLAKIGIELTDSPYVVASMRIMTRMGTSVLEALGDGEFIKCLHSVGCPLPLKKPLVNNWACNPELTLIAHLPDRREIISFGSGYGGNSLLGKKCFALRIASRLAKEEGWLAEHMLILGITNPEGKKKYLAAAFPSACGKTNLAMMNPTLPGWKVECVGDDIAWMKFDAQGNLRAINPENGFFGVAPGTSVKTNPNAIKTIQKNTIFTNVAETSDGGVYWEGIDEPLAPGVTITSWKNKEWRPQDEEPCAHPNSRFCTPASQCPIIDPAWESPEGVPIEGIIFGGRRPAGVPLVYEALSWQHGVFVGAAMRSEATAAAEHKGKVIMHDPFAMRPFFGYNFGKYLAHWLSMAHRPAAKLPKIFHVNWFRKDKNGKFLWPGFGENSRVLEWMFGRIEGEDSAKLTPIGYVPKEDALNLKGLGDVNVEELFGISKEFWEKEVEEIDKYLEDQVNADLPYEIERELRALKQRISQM
Description: (§1) Allosteric binding site. When the enzyme was assayed in the direction of PEP →OAA, the standard reaction mixture contained 50 mM HEPES (pH 7.5), 2mMMnCl2, 10mMDTT, 0.5mMGDP, 2mMPEP, 187.5 μM NADH, 50 mM KHCO3, and 11 units of MDH. The reaction proceeded at 25 °C and was started with the addition of PEPCK (∼1−2 μg). Mutants were assayed as previously described with the exception that ~30 μg of enzyme was used to initiate the assay.14 Inhibition assays with MPA were conducted with varying concentrations of PEP with a fixed GDP concentration of 500 or 25 μM. Inhibition assays against GDP were conducted at a fixed concentration of PEP of 2 or 5 mM.

[2] = target: T1, Phosphoenolpyruvate carboxykinase, cytosolic [GTP]; assay: PEPCK Assay (OAA to PEP)
Description: (§2) OAA/PEP binding site. The activity of PEPCK in the direction from OAA to PEP was assayed with 50 mM HEPES (pH 7.5), 10 mM DTT, 4 mM MgCl2, 0.5 mM GTP, 1 mM ADP, 187.5 μM NADH, 45 units of LDH, 50 μg of PK, 0.2 mM MnCl2, and (∼1−2 μg) of PEPCK. The assay mixture was incubated for 5 min at 25 °C and the reaction started with the addition of OAA to a final concentration of 350 μM. A second reaction without PEPCK was run simultaneously to account for the spontaneous decarboxylation of OAA. Inhibition assays with MPA were conducted under both variable OAA and variable GTP concentrations. When the GTP concentration was varied, MgCl2 concentrations were also varied to keep a constant 4:1 metal:nucleotide ratio.

[3] = target: T1, Phosphoenolpyruvate carboxykinase, cytosolic [GTP]; assay: PEPCK Assay (OAA to PEP-allosteric)
Description: as §2, with “Allosteric” for “OAA/PEP”

[4] = target: T1, Phosphoenolpyruvate carboxykinase, cytosolic [GTP]; assay: PEPCK Assay (PEP to OAA)
Description: as §1, with “OAA/PEP” for “Allosteric”

In the case of `O=C(O)c1ncccc1S` [3-Mercaptopicolinic acid (MPA)], the Ki [1] is reported as 180 µM and 83 µM, the Ki [2] is reported as 45 µM and the Ki [3] is reported as 121 µM. The Ki [4] was 83 µM and 37 µM.
